In US12503463B2, “Aliphatic acid amide derivative” (Sumitomo Pharma Co., Ltd., priority 2019, dated 2025):

Assay: Test 3-1: metabolic stability test in human hepatic microsome
Format: in vitro ADME
Conditions: Test 3-1: microsome 0.1 mg/mL, test compound 0.1 μmol/L, 37° C., 30 minutes
Experimental: Test 3-1: Metabolic Stability Test in Human Hepatic Microsome
The metabolic stability of the present compound in human hepatic microsome was evaluated as mentioned below. Human hepatic microsome was obtained from Xenontech. Human hepatic microsome, NADPH, and each test compound were mixed in 25 mmol/L phosphate buffer solution (pH 7.4) to reach the following concentrations as shown below, and the mixture was incubated at 37° C. for 30 minutes. • Human hepatic microsome: 0.1 mg/mL • NAPDH: 3.2 mmol/L • Test compound: 0.1 μmol/L
The residual ratio of test compound in each sample after 30 minutes was measured by LC-MS, and the metabolic stability in human hepatic microsome was calculated from the following formula. Metabolic stability in human hepatic microsome(mL/min/mg protein)=−LN(residual ratio)/30/0.1

SMILES	Metabolic stability in human hepatic microsome
CCN(CCN1CCC(c2noc3cc(F)ccc23)CC1)C(=O)C1CN(C)CC1O (stereo not drawn) [Example 75, N-Ethyl-N-{2-[4-(6-fluoro-1,2-benzoisoxazol-3-yl)piperidin-1-yl]ethyl}-4-hydroxy-1-methylpyrrolidine-3-carboxamide]	<0.05 mL/min/mg protein
CCN(CCN1CCC(c2noc3ccc(F)cc23)CC1)C(=O)[C@H](C)O [Example 45]	<0.05 mL/min/mg protein
CCN(CCCN1CCC(c2noc3cc(F)ccc23)CC1)S(=O)(=O)CCO [Example 53]	<0.05 mL/min/mg protein
CCN(CCN1CCC(c2noc3cc(F)c(C)cc23)CC1)C(=O)[C@H](C)O [Example 13]	0.054 mL/min/mg protein
CCN(CCN1CCC(c2c[nH]c3ccccc23)CC1)S(=O)(=O)CCO [Example 57]	0.06 mL/min/mg protein
CC(C)N(CCN1CCC(c2noc3cc(F)ccc23)CC1)C(=O)[C@H](C)O [Example 41]	<0.05 mL/min/mg protein
CCN(CCN1CCC(c2noc3cc(F)ccc23)CC1)C(=O)C1(O)CCNC1 (stereo not drawn) [Example 70]	<0.05 mL/min/mg protein
CCN(CCN1CCC(c2noc3cc(F)ccc23)CC1)C(=O)C1CN(C)CCC1O (stereo not drawn) [Example 76, N-Ethyl-N-{2-[4-(6-fluoro-1,2-benzoisoxazol-3-yl)piperidin-1-yl]ethyl}-4-hydroxy-1-methylpiperidine-3-carboxamide]	<0.05 mL/min/mg protein
CCN(CCN1CCC(c2noc3cc(F)ccc23)CC1)C(=O)C1CN(C(C)=O)CCC1O (stereo not drawn) [Example 74]	<0.05 mL/min/mg protein
CCN(CCN1CCC(c2noc3cc(F)ccc23)CC1)C(=O)C1(O)CCCN(C(C)=O)C1 (stereo not drawn) [Example 72]	0.057 mL/min/mg protein
CC(C)N(CCN1CCC(c2noc3cc(F)ccc23)CC1)C(=O)[C@@H](C)O [Example 42]	<0.05 mL/min/mg protein
CCN(CCN1CCC(c2noc3cc(F)ccc23)CC1)C(=O)[C@H]1CC[C@H](O)CC1 [Example 43]	<0.05 mL/min/mg protein
CCN(CCCN1CCC(c2noc3ccccc23)CC1)S(=O)(=O)C(C)CO (stereo not drawn) [Example 54]	<0.05 mL/min/mg protein
CCN(CCN1CCC(c2noc3ccccc23)CC1)C(=O)C(C)O (stereo not drawn) [Example 25]	<0.05 mL/min/mg protein
CCN(CCN1CCC(c2noc3cc(F)ccc23)CC1)C(=O)C(F)(F)CO [Example 36]	<0.05 mL/min/mg protein
CCN(CCN1CCC(c2c[nH]c3ccccc23)CC1)C(=O)CCO [Example 47]	<0.05 mL/min/mg protein
CCN(CCN1CCC(c2noc3ccccc23)CC1)S(=O)(=O)CCO [Example 61]	<0.05 mL/min/mg protein
CCN(CCCN1CCC(c2noc3cc(F)ccc23)CC1)S(=O)(=O)C(C)CO (stereo not drawn) [Example 56]	<0.05 mL/min/mg protein
CCN(CCN1CCC(c2noc3cc(F)ccc23)CC1)C(=O)[C@@H](C)O [Example 1, (2R)-N-Ethyl-N-{2-[4-(6-fluoro-1,2-benzoisoxazol-3-yl)piperidin-1-yl]ethyl}-2-hydroxypropanamide]	<0.05 mL/min/mg protein
CCN(CCN1CCC(c2noc3cc(F)ccc23)CC1)C(=O)C1(O)CCOCC1 [Example 11]	<0.05 mL/min/mg protein
CCN(CCN1CCC(c2c[nH]c3ccccc23)CC1)C(=O)C(C)O (stereo not drawn) [Example 22, N-Ethyl-2-hydroxy-N-{2-[4-(1H-indol-3-yl)piperidin-1-yl]ethyl}propanamide]	<0.05 mL/min/mg protein
CCN(CCN1CCC(c2c[nH]c3cc(F)ccc23)CC1)C(=O)[C@H](C)O [Example 20, (2S)-N-Ethyl-N-{2-[4-(6-fluoro-1H-indol-3-yl)piperidin-1-yl]ethyl}-2-hydroxypropanamide]	<0.05 mL/min/mg protein
CCN(CCN1CCC(c2c[nH]c3cc(F)ccc23)CC1)S(=O)(=O)CCO [Example 62]	<0.05 mL/min/mg protein
CCN(CCN1CCC(c2noc3cc(F)ccc23)CC1)C(=O)CC(C)O (stereo not drawn) [Example 10]	<0.05 mL/min/mg protein
CCN(CCN1CCC(c2n[nH]c3cc(F)ccc23)CC1)C(=O)C(C)O (stereo not drawn) [Example 19, N-Ethyl-N-{2-[4-(6-fluoro-1H-indazol-3-yl)piperidin-1-yl]ethyl}-2-hydroxypropanamide]	<0.05 mL/min/mg protein
CCN(CCN1CCC(c2noc3cc(F)ccc23)CC1)C(=O)C1CNCCC1O (stereo not drawn) [Example 67]	<0.05 mL/min/mg protein
CCN(CCN1CCC(n2ncc3cc(F)ccc32)CC1)S(=O)(=O)C(C)CO (stereo not drawn) [Example 64]	0.097 mL/min/mg protein

SMILES	Metabolic stability in human hepatic microsome
CCN(CCN1CCC(c2noc3cc(F)ccc23)CC1)C(=O)C(C)(C)O [Example 6]	0.053 mL/min/mg protein
CCN(CCN1CCC(c2c[nH]c3ccccc23)CC1)C(=O)[C@@H](C)O [Example 49]	<0.05 mL/min/mg protein
CCN(CCN1CCC(c2noc3cc(F)ccc23)CC1)C(=O)C(O)COC (stereo not drawn) [Example 18, N-Ethyl-N-{2-[4-(6-fluoro-1,2-benzoisoxazol-3-yl)piperidin-1-yl]ethyl}-2-hydroxy-3-methoxypropanamide]	<0.05 mL/min/mg protein
CCN(CCN1CCC(n2ncc3cc(F)ccc32)CC1)C(=O)[C@H](C)O [Example 21, (2S)-N-Ethyl-N-{2-[4-(5-fluoro-1H-indazol-1-yl)piperidin-1-yl]ethyl}-2-hydroxypropanamide]	<0.05 mL/min/mg protein
CCN(CCCN1CCN(c2noc3cc(F)ccc23)CC1)S(=O)(=O)C(C)CO (stereo not drawn) [Example 55]	0.059 mL/min/mg protein
CCN(CCN1CCC(c2noc3cc(F)ccc23)CC1)C(=O)CO [Example 12]	0.089 mL/min/mg protein
CC[C@@H](O)C(=O)N(CC)CCN1CCC(c2noc3cc(F)ccc23)CC1 [Example 29]	<0.05 mL/min/mg protein
CCN(CCN1CCC(c2noc3cc(F)ccc23)CC1)C(=O)C1(O)CC1 [Example 24]	<0.05 mL/min/mg protein
CC(O)C(=O)N(CCN1CCC(c2noc3cc(F)ccc23)CC1)C(C)C (stereo not drawn) [Example 31]	<0.05 mL/min/mg protein
[2H]C(C)(O)C(=O)N(CC)CCN1CCC(c2noc3cc(F)ccc23)CC1 (stereo not drawn) [Example 40]	<0.05 mL/min/mg protein
CCN(CCN1CCC(c2noc3cc(F)ccc23)CC1)C(=O)[C@H]1NCC[C@H]1O [Example 68]	<0.05 mL/min/mg protein
CCN(CCN1CCC(c2noc3cc(F)ccc23)CC1)C(=O)C1(O)CCCNC1 (stereo not drawn) [Example 69]	<0.05 mL/min/mg protein
CCN(CCN1CCC(c2c[nH]c3cc(F)ccc23)CC1)C(=O)CCO [Example 48]	<0.05 mL/min/mg protein
CCN(CCN1CCC(c2noc3cc(F)ccc23)CC1)C(=O)C1CNCC1O (stereo not drawn) [Example 66]	<0.05 mL/min/mg protein
CCN(CCN1CCC(c2noc3cc(F)c(C)cc23)CC1)S(=O)(=O)CCO [Example 58]	<0.05 mL/min/mg protein
CCN(CCN1CCC(n2ncc3cc(F)ccc32)CC1)C(=O)CCO [Example 2, N-Ethyl-N-{2-[4-(5-fluoro-1H-indazol-1-yl)piperidin-1-yl]ethyl}-3-hydroxypropanamide]	<0.05 mL/min/mg protein
CCCN(CCN1CCC(c2noc3cc(F)ccc23)CC1)C(=O)C(C)O (stereo not drawn) [Example 39]	<0.05 mL/min/mg protein
CCN(CCN1CCC(c2noc3cc(F)ccc23)CC1)C(=O)C(C)O (stereo not drawn) [Example 4]	<0.05 mL/min/mg protein
CCN(CCN1CCC(c2noc3cc(F)ccc23)CC1)C(=O)C1CC(O)C1 (stereo not drawn) [Example 46]	<0.05 mL/min/mg protein
CCN(CCN1CCC(n2ccc3cc(F)ccc32)CC1)C(=O)C(C)O (stereo not drawn) [Example 50]	<0.05 mL/min/mg protein
CCN(CCN1CCN(c2noc3ccccc23)CC1)C(=O)C(C)O (stereo not drawn) [Example 26]	<0.05 mL/min/mg protein
CCN(CCN1CCC(n2ncc3cc(F)ccc32)CC1)C(=O)[C@@H](C)O [Example 3, (2R)-N-Ethyl-N-{2-[4-(5-fluoro-1H-indazol-1-yl)piperidin-1-yl]ethyl}-2-hydroxypropanamide]	<0.05 mL/min/mg protein
CCN(CCN1CCN(c2noc3cc(F)ccc23)CC1)C(=O)C(C)O (stereo not drawn) [Example 27]	<0.05 mL/min/mg protein
CCN(CCN1CCC(c2noc3cc(F)ccc23)CC1)C(=O)C(C)CO (stereo not drawn) [Example 37]	<0.05 mL/min/mg protein
CCN(CCN1CCC(c2noc3cc(F)ccc23)CC1)C(=O)C(O)C(F)(F)F (stereo not drawn) [Example 34]	<0.05 mL/min/mg protein
CCN(CCN1CCC(c2noc3cc(F)ccc23)CC1)C(=O)[C@H]1CC[C@@H](O)CC1 [Example 44]	<0.05 mL/min/mg protein
CC(C)N(CCN1CCC(c2noc3cc(F)ccc23)CC1)C(=O)CCO [Example 35]	<0.05 mL/min/mg protein
